Experimental data: US20260015313A1, “AMINO ACID ACTIVE ESTER AND SALT THEREOF” (PeptiDream Inc., priority 2022, published 2026)

Assays:
[1] = tested on: tRNA analog (microhelix); assay: Aminoacylation of tRNA analog (microhelix) with flexizyme dFx, acid PAGE analysis; type: biochemical; conditions: 5 mM substrate, 50 mM Hepes-K pH 7.5, 50 mM MgCl2, 20% DMSO, on ice overnight, FIG. 1-1, 1-2
Experimental: (§1) In the present embodiment, a tRNA was aminoacylated with the active ester synthesized in Example 1 as a substrate using a flexizyme. In order to conveniently confirm acylation with various amino acids, the acylation reaction was performed using, instead of an initiating tRNA (tRNA^Met), a microhelix corresponding to a short analog of the initiating tRNA and the solution after the reaction was subjected to polyacrylamide gel electrophoresis analysis under acidic conditions in order to confirm the aminoacylation efficiency. The mobility of the band derived from the microhelix is slow when it has been aminoacylated. The aminoacylation efficiency can be determined by comparing the intensity of the microhelix band to that of the acylated microhelix band.
The acylation reaction was carried out overnight on ice in a 50 mM Hepes-K buffer (pH 7.5) and 50 mM MgCl2, with a 25 µM flexizyme (dFx), a 25 μM tRNA analog (microhelix) and a 5 mM substrate added to 20% DMSO. […]
(§2) The detailed procedure was as follows: 1 μL of a 500 mM Hepes-K buffer (pH 7.5), 1 μL of a 250 µM flexizyme (dFx) and 1 μL of a 250 µM tRNA analog were added to 3 μL of ultrapure water, and the mixture was heated at 95° C. for 2 minutes, and allowed to cool at room temperature for 5 minutes. […] This solution was analyzed with 20% modified PAGE (50 mM sodium acetate, 6 M urea) under acidic conditions.

[2] = tested on: tRNA analog (microhelix); assay: Aminoacylation of tRNA analog (microhelix) with flexizyme eFx, acid PAGE analysis; type: biochemical; conditions: 5 mM substrate, 50 mM Hepes-K pH 7.5, 600 mM MgCl2, 20% DMSO, on ice overnight, FIG. 1-3, 1-4
Experimental: as §1
The acylation reaction was carried out overnight on ice in a 50 mM Hepes-K buffer (pH 7.5) and 600 mM MgCl2, with a 25 µM flexizyme (eFx), a 25 µM tRNA analog (microhelix) and 5 mM substrate added to 20% DMSO. […]
as §2, with “follows: 4” for “follows: 1”, “7.5), 4” for “7.5), 1”, “flexizyme (eFx)” for “flexizyme (dFx)”, “and 4” for “and 1”, “to 12” for “to 3”, “for 3” for “for 2”

[3] = Differential scanning calorimetry (DSC) hazard determination (TDSC, QDSC; Category V Hazardous materials, self-reactive substances); type: physicochemical; conditions: about 2 mg, SUS pressure-resistant cell, to 500° C. at 10° C./min, nitrogen, line through 2,4-dinitrotoluene and benzoyl peroxide, on or above = hazardous, FIG. 2
From the text: Differential scanning calorimetry (DSC) can be used as a method for determining the hazard of an amino acid active ester (Akiyoshi et al., Netsu Sokutei 2018, 45(4), 161-167.; Sakira Kaneko, Netsu Sokutei 1995, 22(1), 36-43.). DSC is an effective means for assessing the hazard of a self-reactive substance, because it can measure the reaction starting temperature (TDSC) and the reaction heat (QDSC) with a trace amount of sample. […] In Japan, DSC is used as a test to determine whether a chemical substance falls under the Category V Hazardous materials (self-reactive substances) under the Japanese Fire Service Act.
Examples of the test for determining whether a chemical substance falls under the Category V Hazardous materials (self-reactive substances) in the Japanese Fire Service Act include a method involving using 2,4-dinitrotoluene and benzoyl peroxide as reference compounds, plotting the reference points of QDSC and TDSC for each of the compounds and drawing a straight line connecting the two points as the hazard determination line.
The QDSC and TDSC values of 2,4-dinitrotoluene (Compound No. 115) and benzoyl peroxide (Compound No. 116) were taken from the following literature: DSC Data Collection for Reactive Substances (2) (RIIS-SD-89), https://www.jniosh.johas.go.jp/publication/houkoku/houkoku_2007_03_list.html.
The detailed procedure for differential scanning calorimetry (DSC) is as follows:
The amino acid active ester (about 2 mg), which had been sealed in a SUS pressure-resistant cell, was set in a heat flux type differential scanning calorimeter, and heated to 500° C. at 10° C./min in an atmosphere of nitrogen 50 mL/min. The sealing into the cell was carried out in atmospheric air, and a blank cell was used as a reference material. The value of indium (In) measured under the same conditions was used as a standard for correction.
In FIG. 2, the dotted line indicates the hazard determination line. […] The abscissa axis indicates the log(TDSC-25) value, and the ordinate axis indicates the log QDSC value. In FIG. 2, -L-Hph-DBE_HCl indicates the hydrochloride of 3,5-dinitrobenzyl (S)-2-amino-4-phenylbutanoate (Compound No. 114), Gly-DBE_HCl indicates the hydrochloride of 3,5-dinitrobenzyl glycinate (Compound No. 112), -L-Ile-DBE_HCl indicates the hydrochloride of 3,5-dinitrobenzyl L-isoleucinate (Compound No. 111), -L-W7N-DBE_HCl indicates the hydrochloride of 3,5-dinitrobenzyl (S)-2-amino-3-(1H-pyrrolo[2,3-b]pyridin-3-yl)propanoate (Compound No. 113), -L-Ile-DCPE_HCl indicates (2,6-dichloropyridin-4-yl)methyl L-isoleucinate (Compound No. 21), -L-W7N-TEE_HCl indicates 2,2,2-trifluoroethyl (S)-2-amino-3-(1H-pyrrolo[2,3-b]pyridin-3-yl)propanoate (Compound No. 81), and Gly-DCPE_HCl indicates (2,6-dichloropyridin-4-yl)methyl glycinate (Compound No. 99).

| Structure (SMILES) | position of log QDSC vs log(TDSC-25) plot relative to hazard determination line [3] | further results |
| --- | --- | --- |
| CC[C@H](C)[C@H](N)C(=O)OCc1cc(Cl)nc(Cl)c1 [Compound No. 21, (2,6-dichloropyridin-4-yl)methyl L-isoleucinate] |  | acylation of tRNA analog by the flexizyme (aminoacylation efficiency) [1]: efficiently acylated |
| N[C@@H](CCc1ccccc1)C(=O)OCC(F)(F)F [Compound No. 47, 2,2,2-trifluoroethyl (S)-2-amino-4-phenylbutanoate] |  | acylation of tRNA analog by the flexizyme (aminoacylation efficiency) [2]: efficiently acylated |
| NCC(=O)OCc1cc(Cl)nc(Cl)c1 [Compound No. 99, (2,6-dichloropyridin-4-yl)methyl glycinate] |  | acylation of tRNA analog by the flexizyme (aminoacylation efficiency) [1]: efficiently acylated |
| NCC(=O)OCc1cc([N+](=O)[O-])cc([N+](=O)[O-])c1 [Gly-DBE_HCl, 3,5-dinitrobenzyl glycinate] | above the hazard determination line |  |
| Cl.NCC(=O)OCc1cc(Cl)nc(Cl)c1 [Gly-DCPE_HCl, (2,6-Dichloropyridin-4-yl)methyl glycinate hydrochloride] | below the hazard determination line |  |
| N[C@@H](CCc1ccccc1)C(=O)OCc1cc([N+](=O)[O-])cc([N+](=O)[O-])c1 [L-Hph-DBE_HCl, 3,5-dinitrobenzyl (S)-2-amino-4-phenylbutanoate] | above the hazard determination line |  |
| CC[C@H](C)[C@H](N)C(=O)OCc1cc([N+](=O)[O-])cc([N+](=O)[O-])c1 [L-Ile-DBE_HCl, 3,5-dinitrobenzyl L-isoleucinate] | above the hazard determination line |  |
| CC[C@H](C)[C@H](N)C(=O)OCc1cc(Cl)nc(Cl)c1.Cl [L-Ile-DCPE_HCl, (2,6-Dichloropyridin-4-yl)methyl L-isoleucinate hydrochloride] | below the hazard determination line |  |
| N[C@@H](Cc1c[nH]c2ncccc12)C(=O)OCc1cc([N+](=O)[O-])cc([N+](=O)[O-])c1 [L-W7N-DBE_HCl, 3,5-dinitrobenzyl (S)-2-amino-3-(1H-pyrrolo[2,3-b]pyridin-3-yl)propanoate] | above the hazard determination line |  |
| Cl.Cl.N[C@@H](Cc1c[nH]c2ncccc12)C(=O)OCC(F)(F)F [L-W7N-TEE_HCl, 2,2,2-Trifluoroethyl (S)-2-amino-3-(1H-pyrrolo[2,3-b]pyridin-3-yl)propanoate dihydrochloride] | below the hazard determination line |  |
